Data from US11111245B2, “Derivatives of N-cycloalkyl/heterocycloalkyl-4-(imidazo[1,2-a]pyridine)pyrimidin-2-amine as therapeutic agents” (Aucentra Therapeutics Pty Ltd, priority 2017, dated 2021).
Read-outs that look alike come from different tables or passages of the source.

How the values were obtained:
CDKs and other kinases [1] = target: T1, CDKs and other kinases (Homo sapiens, UniProt P24941); test: Radiometric kinase assay (Eurofins Pharma Discovery or Reaction Biology Corporation Kinase Profiler); assay type: biochemical; conditions: CDK2A; for Ki: read-out: CDK inhibition, Ki (μM) CDK2A; for remaining activity at 10 µM: compound at 10 μM, read-out: residual activity (%) at 10 μM CDK2A
T1 construct: other: CDK2A; residual activity (%) at 10 μM CDK2A; compound at 10 μM
Outline: (§1)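 Other CDKs and further kinases were profiled externally by radiometric assay. In-house ADP Glo assays covered CDK4/D1 and CDK6/D3 (RB-CTF substrate, pH 7.5 Tris buffer with MgCl2, DTT, BSA) and CDK9/T1 (RBER-IRStide substrate), 40 min at 37° C.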

CDKs and other kinases [2] = target: T2, CDKs and other kinases (Homo sapiens, UniProt P50613); test: as above; assay type: biochemical; conditions: for remaining activity at 10 µM: compound at 10 μM, read-out: residual activity (%) at 10 μM CDK7H
T2 construct: other: CDK7H; residual activity (%) at 10 μM CDK7H; compound at 10 μM
T2 sequence (P50613 whole entry): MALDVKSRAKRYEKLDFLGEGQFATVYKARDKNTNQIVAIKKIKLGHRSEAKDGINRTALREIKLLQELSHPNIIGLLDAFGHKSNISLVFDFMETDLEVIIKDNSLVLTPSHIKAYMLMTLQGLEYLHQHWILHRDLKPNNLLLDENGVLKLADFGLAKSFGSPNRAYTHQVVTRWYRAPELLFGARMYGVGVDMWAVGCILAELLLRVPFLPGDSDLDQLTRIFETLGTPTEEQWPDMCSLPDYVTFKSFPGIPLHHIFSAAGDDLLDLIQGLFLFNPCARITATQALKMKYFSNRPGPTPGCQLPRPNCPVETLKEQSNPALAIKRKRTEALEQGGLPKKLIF
Outline: as §1

CDKs and other kinases [3] = target: T3, CDKs and other kinases (Homo sapiens, UniProt P06493); test: as above; assay type: biochemical; conditions: CDK1B; for Ki: read-out: CDK inhibition, Ki (μM) CDK1B; for remaining activity at 10 µM: compound at 10 μM, read-out: residual activity (%) at 10 μM CDK1B
T3 construct: other: CDK1B; residual activity (%) at 10 μM CDK1B; compound at 10 μM
T3 sequence (P06493 whole entry): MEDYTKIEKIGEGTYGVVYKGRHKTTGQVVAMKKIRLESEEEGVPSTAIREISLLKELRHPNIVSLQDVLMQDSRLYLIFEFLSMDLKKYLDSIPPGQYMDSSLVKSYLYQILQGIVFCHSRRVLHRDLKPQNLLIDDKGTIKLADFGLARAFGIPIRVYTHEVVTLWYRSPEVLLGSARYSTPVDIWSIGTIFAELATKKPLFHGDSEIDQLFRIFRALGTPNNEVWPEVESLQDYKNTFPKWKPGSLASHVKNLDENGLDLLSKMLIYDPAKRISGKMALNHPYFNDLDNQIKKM
Outline: as §1

CDK4/D1 = CDK4/D1 (Homo sapiens, UniProt P11802); test: ADP Glo Kinase assay CDK4/D1; assay type: biochemical; conditions: CDK4D1; for remaining activity at 10 µM: compound at 10 μM, read-out: residual activity (%) at 10 μM CDK4D1; for Ki: read-out: CDK inhibition, Ki (μM) CDK4D1
Chain of CDK4/D1 (P11802 whole entry): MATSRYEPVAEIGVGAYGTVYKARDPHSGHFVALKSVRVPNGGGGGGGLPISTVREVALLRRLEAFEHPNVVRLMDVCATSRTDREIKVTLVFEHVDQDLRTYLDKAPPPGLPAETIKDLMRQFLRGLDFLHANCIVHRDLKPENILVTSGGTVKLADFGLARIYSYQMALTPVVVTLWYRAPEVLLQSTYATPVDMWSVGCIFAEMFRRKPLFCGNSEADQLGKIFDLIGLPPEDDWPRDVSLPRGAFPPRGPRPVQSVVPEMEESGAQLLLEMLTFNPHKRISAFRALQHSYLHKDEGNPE
Chain of CDK4/D1 (P24385 whole entry partner): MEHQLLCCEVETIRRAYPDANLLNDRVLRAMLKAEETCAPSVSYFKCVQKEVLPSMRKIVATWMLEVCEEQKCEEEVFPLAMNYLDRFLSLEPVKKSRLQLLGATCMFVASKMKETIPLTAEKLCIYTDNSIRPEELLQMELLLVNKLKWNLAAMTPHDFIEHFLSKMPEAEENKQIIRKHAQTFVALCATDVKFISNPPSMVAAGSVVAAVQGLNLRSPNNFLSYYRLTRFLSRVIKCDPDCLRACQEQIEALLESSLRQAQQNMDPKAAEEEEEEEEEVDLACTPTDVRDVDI
Outline: as §1

CDK9/T1 = CDK9/T1 (Homo sapiens, UniProt P50750); test: ADP Glo Kinase assay CDK9/T1; assay type: biochemical
Chain of CDK9/T1 (P50750 whole entry): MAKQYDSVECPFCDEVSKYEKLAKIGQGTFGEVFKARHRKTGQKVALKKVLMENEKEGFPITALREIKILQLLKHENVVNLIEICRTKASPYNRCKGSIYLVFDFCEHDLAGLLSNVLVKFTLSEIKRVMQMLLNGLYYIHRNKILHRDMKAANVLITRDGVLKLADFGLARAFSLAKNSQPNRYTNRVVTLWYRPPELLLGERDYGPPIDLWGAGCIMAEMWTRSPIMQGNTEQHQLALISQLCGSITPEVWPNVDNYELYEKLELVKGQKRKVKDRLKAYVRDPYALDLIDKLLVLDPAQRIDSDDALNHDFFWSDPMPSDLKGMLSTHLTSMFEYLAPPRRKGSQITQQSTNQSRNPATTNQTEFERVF
Chain of CDK9/T1 (O60563 whole entry partner): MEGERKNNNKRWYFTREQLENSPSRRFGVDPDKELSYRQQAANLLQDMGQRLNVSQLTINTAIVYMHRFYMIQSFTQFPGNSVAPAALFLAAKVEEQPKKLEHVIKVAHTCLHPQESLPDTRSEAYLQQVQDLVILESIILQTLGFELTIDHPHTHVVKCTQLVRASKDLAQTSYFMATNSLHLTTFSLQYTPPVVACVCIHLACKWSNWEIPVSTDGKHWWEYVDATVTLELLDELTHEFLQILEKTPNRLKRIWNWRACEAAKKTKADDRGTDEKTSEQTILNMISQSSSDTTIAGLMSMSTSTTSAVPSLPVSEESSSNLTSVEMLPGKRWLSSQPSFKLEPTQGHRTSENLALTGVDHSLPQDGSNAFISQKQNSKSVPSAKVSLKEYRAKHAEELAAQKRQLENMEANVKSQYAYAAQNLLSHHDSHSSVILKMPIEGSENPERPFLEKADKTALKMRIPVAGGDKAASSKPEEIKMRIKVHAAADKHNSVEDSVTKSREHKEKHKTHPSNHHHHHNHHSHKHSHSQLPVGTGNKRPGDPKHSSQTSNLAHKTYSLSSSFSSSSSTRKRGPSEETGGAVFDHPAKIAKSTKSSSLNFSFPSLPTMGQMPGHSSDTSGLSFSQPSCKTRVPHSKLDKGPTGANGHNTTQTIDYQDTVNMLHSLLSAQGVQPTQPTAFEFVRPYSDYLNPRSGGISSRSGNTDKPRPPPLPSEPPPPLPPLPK
Outline: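 CDK4/D1 and CDK6/D3 were run in […] Tris pH 7.5, 20 mM MgCl2, 0.4 mM DTT, 0.1 mg/ml BSA with RB-CTF substrate; CDK9/T1 used RBER-IRStide. ATP-started reactions ran 40 min at 37° C, with ADP Glo luminescence read-out. IC50 came from 4-parameter fits; Ki from Km (ATP) and IC50.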

CDK6/D3 = CDK6/D3 (Homo sapiens, UniProt Q00534); test: ADP Glo Kinase assay CDK6/D3; assay type: biochemical; conditions: CDK6D3; for remaining activity at 10 µM: compound at 10 μM, read-out: residual activity (%) at 10 μM CDK6D3; for Ki: read-out: CDK inhibition, Ki (μM) CDK6D3
Chain of CDK6/D3 (Q00534 whole entry): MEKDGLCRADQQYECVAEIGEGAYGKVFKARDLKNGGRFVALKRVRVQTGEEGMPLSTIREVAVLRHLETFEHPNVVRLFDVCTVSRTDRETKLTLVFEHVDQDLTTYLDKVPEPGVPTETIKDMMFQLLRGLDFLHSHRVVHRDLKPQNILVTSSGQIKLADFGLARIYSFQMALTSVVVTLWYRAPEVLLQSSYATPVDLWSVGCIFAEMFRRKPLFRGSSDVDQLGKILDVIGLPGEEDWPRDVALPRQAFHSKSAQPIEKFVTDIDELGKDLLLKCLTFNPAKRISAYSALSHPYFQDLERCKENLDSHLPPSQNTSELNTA
Chain of CDK6/D3 (P30281 whole entry partner): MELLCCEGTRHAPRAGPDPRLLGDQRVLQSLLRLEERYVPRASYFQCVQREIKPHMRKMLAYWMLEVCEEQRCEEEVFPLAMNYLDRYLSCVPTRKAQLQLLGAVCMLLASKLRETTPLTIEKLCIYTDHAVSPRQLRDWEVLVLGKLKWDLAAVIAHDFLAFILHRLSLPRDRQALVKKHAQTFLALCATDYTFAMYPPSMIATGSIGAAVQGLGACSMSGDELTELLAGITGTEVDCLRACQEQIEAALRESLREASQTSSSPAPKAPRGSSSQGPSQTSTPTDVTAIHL
Experimental: Eurofins Pharma Discovery or Reaction Biology Corporation Kinase Profiler services were used to measure inhibition of CDKs and other kinases by radiometric assay. Inhibition of CDK4/D1, CDK6/D3 and CDK9/T1 were also determined in-house using ADP Glo Kinase assays (Promega Corporation, Madison, USA). Briefly, the kinase reaction for CDK4/D1 and CDK6/D3 was performed with kinase reaction buffer ([…] Tris base pH 7.5, 20 mM MgCl2, 0.4 mM DTT), 0.1 mg/ml BSA and RB-CTF substrate (retinoblastoma protein 1 C-terminal fraction). For CDK9/CyclinT1, the kinase reaction was performed with standard assay buffer and Kinase Dilution Buffer and RBER-IRStide substrate. Serial dilutions of 1:3 were prepared for test compounds for 10 concentrations (from 10 μM to 0.5 nM). The kinase reactions were started by addition of ATP, incubated for 40 min at 37° C. and then stopped by adding 10 μL of ADP Glo reagent. After incubation at room temperature in the dark for 40 min, 20 μL of kinase detection reagent was added per well and incubated for 40 min. Luminescence was measured using an EnVision Multilabel plate reader (PerkinElmer, Buckinghamshire, UK). Positive and negative controls were performed in the presence and absence of CDK kinases, respectively. Half-maximal inhibition (IC50) values were calculated using a 4-parameter logistic non-linear regression model with Graphpad prism (Version 6.0). Apparent inhibition constants (Ki) values were calculated from Km (ATP) and IC50 values for the respective kinases.

leukemia cell lines = test: Resazurin cell viability assay on leukemia cell lines (72 h growth inhibition, GI50); assay type: cell-based; conditions: Homo sapiens, MV4-11 cells
Experimental: Compounds from Example 1 were subjected to a standard MTT (3-(4,5-dimethylthiazol-2-yl)-2,5-diphenyltetrazolium bromide) and resazurin assays on solid tumour cell lines and leukemia cell lines, respectively, as previously reported (Wang S et al., J Med Chem 47:1662-1675, 2004 and Diab S. et al. CheMedChem 9:962-972, 2014). Compound concentrations required to inhibit 50% of cell growth (GI50) were calculated using non-linear regression analysis.

[4] = CDK7H, read-out: CDK inhibition, Ki (μM) CDK7H
[5] = CDK9T1, read-out: CDK inhibition, Ki (μM) CDK9T1

Compound	Ki (CDKs and other kinases [1])	Ki (CDKs and other kinases [2]; [4])	Ki (CDKs and other kinases [3])	remaining activity at 10 µM (CDK4/D1)	Ki (CDK9/T1; [5])	remaining activity at 10 µM (CDK6/D3)	remaining activity at 10 µM (CDKs and other kinases [1])	remaining activity at 10 µM (CDKs and other kinases [2]; CDK7H)	remaining activity at 10 µM (CDKs and other kinases [3])	Ki (CDK4/D1)	Ki (CDK6/D3)	Ki (CDKs and other kinases [2])	Ki (CDK9/T1)	GI50 (leukemia cell lines)
N[C@H]1CC[C@H](Nc2ncc(Cl)c(-c3cnc4cc(Nc5cncnc5)ccn34)n2)CC1 [Compound 118, (1r,4r)-N^1-(5-Chloro-4-(7-(pyrimidin-5-ylamino)imidazo [1,2-a]pyridin-3-yl)pyrimidin-2-yl)cyclohexane-1,4-diamine]	0.026 µM	0.018 µM	0.154 µM	0%	0.036 µM	6%								
C[C@]12C[C@]3(C)C[C@](O)(C1)C[C@](Nc1ncc(F)c(-c4cnc5ccc(-c6ccccc6)cn45)n1)(C2)C3 [Compound 110, (1s,3r,5R,7S)-3-((5-Fluoro-4-(6-phenylimidazo[1,2-a]pyridin-3-yl)pyrimidin-2-yl)amino)-5,7-dimethyladamantan-1-ol]				99%	> 5 µM	100%	61%	87%	66%					
Cc1cnc(N[C@H]2CC[C@H](N)CC2)nc1-c1cnc2ccc(Oc3cncnc3)cn12 [Compound 75, (1r,4r)-N^1-(5-Methyl-4-(6-(pyrimidin-5-yloxy)imidazo [1,2-a]pyridin-3-yl)pyrimidin-2-yl)cyclohexane-1,4-diamine]				41%	0.034 µM	46%	22%	50%	52%					
N[C@H]1CC[C@H](Nc2ncc(F)c(-c3cnc4ccc(Nc5cccnc5)cn34)n2)CC1 [Compound 49, (1r,4r)-N^1-(5-Fluoro-4-(6-(pyridin-3-ylamino)imidazo [1,2-a]pyridin-3-yl)pyrimidin-2-yl)cyclohexane-1,4-diamine]				0%	0.003 µM	5%	0%	3%	1%					
N[C@H]1CC[C@H](Nc2ncc(Cl)c(-c3cnc4cc(-c5cccnc5)ccn34)n2)CC1 [Compound 78, (1r,4r)-N^1-(5-Chloro-4-(7-(pyridin-3-yl)imidazo[1,2-a]pyridin-3-yl)pyrimidin-2-yl)cyclohexane-1,4-diamine]				10%	0.019 µM	3%	0%	3%	7%					
Cc1cnc(N[C@H]2CC[C@H](N)CC2)nc1-c1cnc2cc(Nc3cncnc3)ccn12 [Compound 56, (1r,4r)-N^1-(5-Methyl-4-(7-(pyrimidin-5-ylamino)imidazo [1,2-a]pyridin-3-yl)pyrimidin-2-yl)cyclohexane-1,4-diamine]				0%	0.051 µM	5%	12%	22%	39%					
N[C@H]1CC[C@H](Nc2ncc(Cl)c(-c3cnc4cc(-c5ccccc5)ccn34)n2)CC1 [Compound 77, (1r,4r)-N^1-(5-Chloro-4-(7-phenylimidazo[1,2-a]pyridin-3-yl)pyrimidin-2-yl)cyclohexane-1,4-diamine]				5%	0.011 µM	6%	0%	3%	5%					
CNC1CCC(Nc2ncc(C)c(-c3cnc4ccc(Nc5cncnc5)cn34)n2)CC1 (stereo not drawn) [Compound 109, N^1-Methyl-N^4-(5-Methyl-4-(6-(pyrimidin-5-ylamino)imidazo[1,2-a]pyridin-3-yl)pyrimidin-2-yl)cyclohexane-1,4-diamine]	0.18 µM	> 10 µM	1.26 µM		0.008 µM					0.94 µM	0.21 µM			
Cc1cnc(N[C@H]2CC[C@H](N3CC3)CC2)nc1-c1cnc2cc(Nc3cncnc3)ccn12 [Compound 119, 3-(2-(((1r,4r)-4-(Aziridin-1-yl)cyclohexyl)amino)-5-methylpyrimidin-4-yl)-N-(pyrimidin-5-yl)imidazo[1,2-a] pyridin-7-amine]	0.14 µM		0.623 µM							0.64 µM	0.54 µM	0.12 µM	0.004 µM	
Cc1cnc(N2CCC3(CCNC3=O)CC2)nc1-c1cnc2ccc(-c3ccccc3)cn12 [Compound 125, 8-(5-Methyl-4-(6-phenylimidazo[1,2-a]pyridin-3-yl)pyrimidin-2-yl)-2,8-diazaspiro[4.5]decan-1-one]	3.94 µM	4.56 µM	> 5 µM	100%	2.88 µM	92%								
Cc1cnc(N[C@H]2CC[C@H](N)CC2)nc1-c1cnc2ccc(N(C)c3cccnc3)cn12 [Compound 122, (1r,4r)-N^1-(5-Methyl-4-(6-(methyl(pyridin-3-yl)amino)imidazo[1,2-a]pyridin-3-yl)pyrimidin-2-yl)cyclohexane-1,4-diamine]	1.15 µM	1.16 µM	1.71 µM	71%	0.3 µM	44%								
Cc1cnc(N[C@H]2CC[C@H](N)CC2)nc1-c1cnc2ccc(Nc3cncc(F)c3)cn12 [Compound 66, (1r,4r)-N^1-(4-(6-((5-Fluoropyridin-3-yl)amino)imidazo [1,2-a]pyridin-3-yl)-5-methylpyrimidin-2-yl)cyclohexane-1,4-diamine]	0.18 µM	3.25 µM	1.26 µM		0.007 µM					0.76 µM	0.33 µM			
Cc1cnc(N[C@H]2CC[C@H](NC(C)C)CC2)nc1-c1cnc2ccc(Nc3cncnc3)cn12 [Compound 121, (1r,4r)-N^1-Isopropyl-N^4-(5-methyl-4-(6-(pyrimidin-5-ylamino)imidazo[1,2-a]pyridin-3-yl)pyrimidin-2-yl) cyclohexane-1,4-diamine]	0.86 µM	3.86 µM	0.78 µM		0.032 µM	47%				2.21 µM				
C[C@]12C[C@]3(C)C[C@](O)(C1)C[C@](Nc1ncc(F)c(-c4cnc5ccc(Nc6cncnc6)cn45)n1)(C2)C3 [Compound 111, (1s,3r,5R,7S)-3-((5-Fluoro-4-(6-(pyrimidin-5-ylamino)imidazo[1,2-a]pyridin-3-yl)pyrimidin-2-yl)amino)-5,7-dimethyladamantan-1-ol]				29%	0.108 µM	89%	11%	86%	20%					
CC(C)(C)OC(=O)N1CCC(Nc2ncc(F)c(-c3cnc4ccccn34)n2)CC1 [Compound 20, tert-Butyl 4-((5-fluoro-4-(imidazo[1,2-a]pyridin-3-yl)pyrimidin-2-yl)amino)piperidine-1-carboxylate]		1.75 µM		29%	0.829 µM		54%		56%					0.092 ± 0.01 µM
